Experimental data from article PMC10818931, “In Vitro Evaluation of Drug–Drug Interaction Potential of Epetraborole, a Novel Bacterial Leucyl-tRNA Synthetase Inhibitor” (Pharmaceuticals, 2024).
Read-outs that look alike come from different tables or passages of the source.

Columns and labels:
P-gp [1] = biological target: T1, P-gp (Homo sapiens, UniProt P08183); assay: Caco-2 efflux ratio without/with P-gp inhibitor (P-gp substrate); format: in vitro ADME; design: host or cells: Caco-2; details: for efflux ratio: Caco-2, 1, 10, 100 µM, 1–4 h
T1 sequence (P08183 whole entry): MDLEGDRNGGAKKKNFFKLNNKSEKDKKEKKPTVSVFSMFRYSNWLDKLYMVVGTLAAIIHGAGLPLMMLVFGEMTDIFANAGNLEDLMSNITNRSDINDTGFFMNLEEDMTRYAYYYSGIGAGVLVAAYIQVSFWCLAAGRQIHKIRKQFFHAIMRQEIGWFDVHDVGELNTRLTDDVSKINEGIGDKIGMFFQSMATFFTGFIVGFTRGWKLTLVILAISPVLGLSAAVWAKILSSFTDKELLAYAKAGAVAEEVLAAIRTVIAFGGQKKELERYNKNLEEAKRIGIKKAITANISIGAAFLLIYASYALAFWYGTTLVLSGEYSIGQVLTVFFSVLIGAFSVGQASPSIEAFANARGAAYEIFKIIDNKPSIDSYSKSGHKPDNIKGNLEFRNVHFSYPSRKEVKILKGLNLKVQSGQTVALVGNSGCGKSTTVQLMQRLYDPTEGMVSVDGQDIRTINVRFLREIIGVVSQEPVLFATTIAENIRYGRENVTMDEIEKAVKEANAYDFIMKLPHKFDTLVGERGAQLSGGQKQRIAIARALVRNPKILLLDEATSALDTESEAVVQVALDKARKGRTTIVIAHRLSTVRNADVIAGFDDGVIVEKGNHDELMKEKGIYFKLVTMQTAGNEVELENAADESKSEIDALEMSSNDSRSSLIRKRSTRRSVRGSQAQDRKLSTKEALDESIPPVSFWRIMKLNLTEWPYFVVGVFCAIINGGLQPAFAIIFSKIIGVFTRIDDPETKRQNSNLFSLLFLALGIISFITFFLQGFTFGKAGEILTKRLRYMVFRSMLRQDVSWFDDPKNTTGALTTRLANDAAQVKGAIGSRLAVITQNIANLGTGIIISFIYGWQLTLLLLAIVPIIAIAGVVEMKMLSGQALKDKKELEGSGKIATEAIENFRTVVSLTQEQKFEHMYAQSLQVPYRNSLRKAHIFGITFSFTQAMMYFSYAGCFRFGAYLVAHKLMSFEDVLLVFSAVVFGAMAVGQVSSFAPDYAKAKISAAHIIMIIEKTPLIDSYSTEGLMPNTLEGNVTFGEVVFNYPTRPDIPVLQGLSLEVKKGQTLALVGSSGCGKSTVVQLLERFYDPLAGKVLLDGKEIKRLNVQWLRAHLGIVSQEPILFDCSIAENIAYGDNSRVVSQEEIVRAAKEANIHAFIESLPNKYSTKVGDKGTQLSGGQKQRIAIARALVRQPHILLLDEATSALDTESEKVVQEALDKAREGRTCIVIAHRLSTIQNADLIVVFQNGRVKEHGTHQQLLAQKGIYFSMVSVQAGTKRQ
Description: (§1) ^14C-EBO permeability in Caco-2 Cells (MDR1/Protein Glycoprotein or P-gp) was determined using methodologies described previously. The apparent permeability of ^14C-EBO was determined in both the apical to basolateral and the basolateral to apical directions, in triplicate, at final concentrations of 1, 10, and 100 μM. Cell monolayers were incubated with ^14C-EBO at 37 °C for 1, 2, 3, and 4 h. The transepithelial electrical resistance (TEER) values of the monolayers prior to and following each experiment were measured to confirm the integrity of the Caco-2 cell monolayers. The apparent permeability of ^14C-EBO (at a final concentration of 10 μM) was determined in both the apical to basolateral and basolateral to apical directions under the same conditions as previously described in the presence of P-gp inhibitors cyclosporine A (10 μM) and verapamil (100 μM) in the donor compartment.

CYP2D6 = biological target: T2, CYP2D6 (Homo sapiens, UniProt P10635); assay: Automated time-dependent inhibition assay in HLM; format: in vitro ADME; details: EBO 30 and 50 µM, 30 min preincubation with NADPH
T2 construct: Characterized, pooled, human hepatic microsomes from 15 individuals; tissue CellzDirect (Durham, NC, USA) or XenoTech LLC (Lenexa, KS, USA); host or cells: pooled human liver microsomes (15 donors)
T2 sequence (P10635 whole entry): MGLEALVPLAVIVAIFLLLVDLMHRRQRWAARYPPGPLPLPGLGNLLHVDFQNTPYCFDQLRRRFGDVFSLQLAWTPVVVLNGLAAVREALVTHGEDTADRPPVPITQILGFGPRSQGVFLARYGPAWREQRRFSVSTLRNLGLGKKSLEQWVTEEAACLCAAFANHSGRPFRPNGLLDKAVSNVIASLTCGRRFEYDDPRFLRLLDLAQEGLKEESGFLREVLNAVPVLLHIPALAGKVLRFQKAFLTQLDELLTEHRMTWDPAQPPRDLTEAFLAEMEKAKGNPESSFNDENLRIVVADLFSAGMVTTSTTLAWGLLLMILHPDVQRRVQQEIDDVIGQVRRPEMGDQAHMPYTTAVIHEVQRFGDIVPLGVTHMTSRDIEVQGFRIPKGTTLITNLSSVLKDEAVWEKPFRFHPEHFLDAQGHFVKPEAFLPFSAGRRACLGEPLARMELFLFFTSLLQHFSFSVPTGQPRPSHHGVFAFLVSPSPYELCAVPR
Description: (§2) The effect of EBO (30 and 50 µM) on time-dependent inhibition of CYP3A4 (testosterone and midazolam substrate) and CYP2D6 ([…] substrate) was determined using methodologies described previously. The Genesis robot (Tecan, Reading, UK) running Gemini software (https://www.tecan.com) was used to perform a fully automated TDI assay. The assay ran a preincubation (30 min at 37 °C, 1 mg/mL HLM incubation containing 1 mM NADPH and EBO) and a secondary incubation (containing 50 µL aliquot from the preincubation, 1 mM NADPH, and substrates for CYP3A4 and CYP2D6). At the end of the secondary incubation (15 min at 37 °C), an aliquot (50 µL) was removed and added to 100 µL of methanol to quench the reaction. Quenched samples were then chilled at −20 °C for 2 h, centrifuged at 2000× g for 15 min, and the supernatants were transferred to microtiter plates for LC/MS-MS analysis.

[2] = Apparent permeability through Caco-2 cell monolayers; details: human, Caco-2
Description: as §1

Caco-2 cell monolayers = assay: as above; details: in vitro
Description: as §1

major CYP enzymes = assay: Stability studies (CYP substrate potential, hepatic microsomes); format: in vitro ADME
P-gp [3] = biological target: T1, P-gp; assay: Inhibition of P-gp digoxin efflux transport in MDR1-MDCK cells
Description: A preincubation with EBO or known inhibitor was performed on both sides to preload the cells. After 30 min, the preincubation solution was aspirated. Aliquots of fresh dosing solution with or without EBO or known inhibitor (0.55 mL for AP-to-BL, 1.55 mL for BL-to-AP) were added to the donor compartment, and HBSSg_7.4 with or without EBO or known inhibitor (1.5 mL for AP-to-BL, 0.5 mL for BL-to-AP) were added to the receiver compartment. Receiver samples (200 µL) and donor samples (50 µL) were taken at preselected time points.
Cell monolayer integrity was examined using lucifer yellow (excitation 450 nm and emission 538 nm). The concentrations of the probe substrate in the donor and receiver samples, as well as EBO in dosing solutions, were determined by LC-MS/MS.

CYP3A4 = assay: Automated time-dependent inhibition assay in HLM; format: in vitro ADME, human; details: EBO 30 and 50 µM, 30 min preincubation with NADPH
Description: as §2

CYP2C19 = biological target: T3, CYP2C19 (Homo sapiens, UniProt P33261); assay: CYP inhibition (direct and metabolism-dependent) in human hepatic microsomes; format: in vitro ADME
T3 construct: tissue CellzDirect; XenoTech LLC; host or cells: pooled human liver microsomes
T3 sequence (P33261 whole entry): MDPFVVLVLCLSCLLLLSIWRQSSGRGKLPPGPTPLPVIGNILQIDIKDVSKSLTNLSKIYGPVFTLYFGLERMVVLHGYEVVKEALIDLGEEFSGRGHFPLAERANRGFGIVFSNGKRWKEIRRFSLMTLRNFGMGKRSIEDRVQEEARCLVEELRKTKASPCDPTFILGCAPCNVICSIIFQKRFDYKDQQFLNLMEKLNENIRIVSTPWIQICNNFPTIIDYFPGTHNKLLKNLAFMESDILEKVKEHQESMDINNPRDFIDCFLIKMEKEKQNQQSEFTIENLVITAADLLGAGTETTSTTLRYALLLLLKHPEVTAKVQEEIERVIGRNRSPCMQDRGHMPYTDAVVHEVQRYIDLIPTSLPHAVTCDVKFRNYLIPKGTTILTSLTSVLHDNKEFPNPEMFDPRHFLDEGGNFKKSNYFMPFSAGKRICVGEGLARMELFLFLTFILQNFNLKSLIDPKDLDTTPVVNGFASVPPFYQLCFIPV
Description: (§3) The direct inhibitory potential of EBO on cytochrome P450 activities O-deethylase (CYP1A2), bupropion hydroxylase (CYP2B6), amodiaquine N-deethylase (CYP2C8), diclofenac 4′-hydroxylase (CYP2C9), S-mephenytoin 4′-hydroxylase (CYP2C19), bufuralol 1′-hydroxylase (CYP2D6), chlorzoxazone 6-hydroxylase (CYP2E1), testosterone 6β-hydroxylase (CYP3A), and midazolam 1′-hydroxylase (CYP3A) was assessed in vitro using human hepatic microsomes according to Covance Laboratory (Madison, WI, USA) SOP. A single substrate concentration was used, approximating the concentration of substrate that gives half the maximum reaction velocity (Km) for human hepatic microsomes for each cytochrome P450 activity. […] All sample and control incubations were performed in triplicate and were analyzed by LC-MS/MS. Incubation mixtures contained microsomal protein and substrate in a 0.1 M potassium phosphate buffer (pH 7.4) containing 1 mM EDTA (assay buffer). […] Incubations were terminated by the addition of 100 µL of an internal standard solution followed by vortex mixing. Protein was removed by centrifugation at 1500× g for 5 min at 4 °C, and supernatants were transferred to a separate plate and stored at 4 °C prior to LC-MS/MS analysis. The analyte for each activity assay was quantitated by comparison to a linear curve of an authentic standard prepared using human microsomal protein. […] Incubations were performed at substrate concentrations approximating the average Km values. […] For determination of control activities, NADPH was added after the addition of each substrate. Samples were then processed as previously described.

CYP2B6 = assay: as above; format: in vitro ADME
Description: as §3

CYP2E1 = biological target: T4, CYP2E1 (Homo sapiens, UniProt P05181); assay: as above; format: in vitro ADME
T4 construct: Characterized, pooled, human hepatic microsomes from 15 individuals; tissue CellzDirect (Durham, NC, USA) or XenoTech LLC (Lenexa, KS, USA); host or cells: pooled human liver microsomes (15 donors)
T4 sequence (P05181 whole entry): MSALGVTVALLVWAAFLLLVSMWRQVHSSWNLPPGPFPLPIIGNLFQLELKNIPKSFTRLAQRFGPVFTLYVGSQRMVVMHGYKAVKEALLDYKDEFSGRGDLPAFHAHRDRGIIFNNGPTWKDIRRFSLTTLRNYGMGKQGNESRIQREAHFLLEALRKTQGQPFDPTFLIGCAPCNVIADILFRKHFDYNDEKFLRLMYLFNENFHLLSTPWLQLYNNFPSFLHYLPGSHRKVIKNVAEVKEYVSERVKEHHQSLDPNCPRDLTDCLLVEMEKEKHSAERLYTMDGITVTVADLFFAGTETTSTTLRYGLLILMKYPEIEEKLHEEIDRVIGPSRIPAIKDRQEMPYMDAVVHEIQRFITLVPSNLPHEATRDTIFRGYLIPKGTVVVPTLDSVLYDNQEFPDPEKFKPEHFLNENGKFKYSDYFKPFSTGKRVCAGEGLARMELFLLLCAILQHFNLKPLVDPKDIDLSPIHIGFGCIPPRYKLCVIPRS
Description: as §3

[4] = metabolism-dependent inhibition

SMILES: NC[C@H]1OB(O)c2c(OCCCO)cccc21 [EBO, Epetraborole]
- P-gp substrate (P-gp [1]; Caco-2, efflux ratio without/with P-gp inhibitor): not a P-gp substrate
- efflux ratio (P-gp [1]; vehicle (no P-gp inhibitor), listed as 14C-EBO): <2
- efflux ratio (P-gp [1]; human, with cyclosporine A (10 µM), Cyclosporine A (10 µM), read-out: Efflux Ratio): < 2
- efflux ratio (P-gp [1]; human, with verapamil (100 µM), Verapmil (100 µM), read-out: Efflux Ratio): < 2
- efflux ratio (P-gp [1]; human, vehicle (no P-gp inhibitor), read-out: Efflux Ratio): < 2
- Time-dependent inhibition (CYP2D6): No time-dependent inhibition
- Papp A→B [2]: ≤ 0.31 ×10⁻⁶ cm/s
- Papp B→A [2]: ≤ 0.35 ×10⁻⁶ cm/s
- Permeability (in words) (Caco-2 cell monolayers): low permeability
- Substrate for major CYP enzymes (stability studies) (major CYP enzymes): poor substrate
- IC50 (P-gp [3]): 5650 µM
- [Igut]/IC50 (P-gp [3]; human, pH 7.4): ≤ 3
- inhibition at 17000 µM (P-gp [3]; human, pH 7.4): > 50%
- Time-dependent inhibition (CYP3A4): No time-dependent inhibition
- MDI IC50 Fold Change (CYP2C19; [4]): No
- IC50 (CYP2C19; read-out: as an Inhibitor IC50): > 100 µM
- IC50 (CYP2B6; human, human liver microsomes, pH 7.4, probe bupropion, read-out: as an Inhibitor IC50): > 100 µM
- MDI IC50 Fold Change (CYP2B6; [4]): No
- MDI IC50 Fold Change (CYP2E1; [4]): No
- IC50 (CYP2E1; read-out: as an Inhibitor IC50): > 100 µM
